Results taken from patent publication US20140173774A1, “SOYBEAN TRAN[…] EFFICIENT AND HIGH-[…] PRODUCTION” (Dow AgroSciences LLC, priority 2012, published 2014).

Legend:
soybean explants = assay: Glyphosate selection of split-seed explants transformed with pDAB107553; set-up: species or system Glycine max cv. Maverick
Procedure: The novel Agrobacterium-mediated soybean split-seed comprising a portion of an embryonic axis transformation method described in Example 2 was used to transform mature soybean (Glycine max) cv. Maverick seeds with an Agrobacterium strain harboring pDAB 107553. Three different concentrations of glyphosate (e.g., 0.025 mM, 0.05 mM and 0.1 mM) were incorporated into the selection schemes for the soybean split-seed comprising a portion of an embryonic axis transformation method.
As the transformation experiment progressed through various subculture stages, the health of the soybean explants deteriorated. […] The intensity of cotyledon yellowing was more prominent in soybean explants cultured on greater rates of glyphosate (FIG. 9).
The surface of the explants was turning soft and creamy in consistency. The softening effect was very pronounced at the end of SE-1 stage onwards.

[1] = tested on: un-transformed soybean explants; assay: Glyphosate dose response study on un-transformed soybean explants in tissue culture; details: for Number of Explants at Various Stages of Selection: End of SE-2 / Number of Explants at Various Stages of Selection: SE-1 / Number of Explants at Various Stages of Selection: SE-2 / Number of Explants at Various Stages of Selection: SI-2: 49 explants at CC
Procedure: Initially, a dose response study was completed. To test the effect of glyphosate on the explants, glyphosate was added to media used from the shoot initiation stage and onwards. Glyphosate was tested from the range of 0.025-0.2 mM. Incorporation of glyphosate in tissue culture media within this concentration range has been reported in soybean (Clemente et al, 2000; Hinchee et al, 1996; Martinell et al, 2006; Martinell et al, 1999; Martinell et al, 2002), tobacco (Singer et al, 1985), cotton (Zhao et al, 2006) and wheat (Hu et al, 2003). Five concentrations of glyphosate were tested for culturing of un-transformed soybean explants. The concentrations incorporated into the SI-2 media were 0.025 mM, 0.05 mM, 0.075 mM, 0.1 mM and 0.2 mM. The un-transformed soybean explants were maintained on the same rate of glyphosate selection for all the successive stages of subculture from SI-2 media to the completion of the tissue culturing protocol. The numbers of healthy explants were counted at each subculture stage. Dead explants were discarded and healthy explants were subcultured further onto appropriate media.
Growth of the explants was also retarded on glyphosate containing media. Next, the cotyledons were removed and the explants were subcultured from SI-2 to SE media. At the end of another two weeks of selection on SE media, significant differences in the growth of the explants were observed when the explants were exposed to different levels of glyphosate. The retarded growth of the explants was proportionate to the increasing dose of glyphosate. Similarly the number of dead explants was also proportional to the increasing dose of glyphosate. The number of dead explants increased as the dose of glyphosate was increased. […] Subsequently, three different concentrations of glyphosate (e.g., 0.025 mM, 0.05 mM and 0.1 mM) were incorporated into the selection schemes for Agrobacterium-mediated transformation of the soybean split-seed explants comprising a portion of an embryonic axis.

Compound: O=C(O)CNCP(=O)(O)O [glyphosate]
- yellowing of the cotyledons (soybean explants; after first selection cycle, two weeks on SI-2 media): yellowing of the cotyledons was noted
- adverse physiological effects on explants (soybean explants; highest level, 0.1 mM, of 0.025, 0.05 and 0.1 mM): greatest adverse physiological effects
- softening of explant tissue (soybean explants; media containing glyphosate, pronounced from end of SE-1): softening on the surfaces of the plant tissues
- Number of Explants at Various Stages of Selection: End of SE-2 ([1]; 0.025 mM glyphosate): 0
- Number of Explants at Various Stages of Selection: SE-1 ([1]; 0.025 mM glyphosate): 41
- Number of Explants at Various Stages of Selection: SE-2 ([1]; 0.025 mM glyphosate): 38
- Number of Explants at Various Stages of Selection: SI-2 ([1]; 0.025 mM glyphosate): 43
- Number of Explants at Various Stages of Selection: End of SE-2 ([1]; 0.05 mM glyphosate): 0
- Number of Explants at Various Stages of Selection: SE-1 ([1]; 0.05 mM glyphosate): 45
- Number of Explants at Various Stages of Selection: SE-2 ([1]; 0.05 mM glyphosate): 38
- Number of Explants at Various Stages of Selection: SI-2 ([1]; 0.05 mM glyphosate): 45
- Number of Explants at Various Stages of Selection: End of SE-2 ([1]; 0.075 mM glyphosate): 0
- Number of Explants at Various Stages of Selection: SE-1 ([1]; 0.075 mM glyphosate): 45
- Number of Explants at Various Stages of Selection: SE-2 ([1]; 0.075 mM glyphosate): 21
- Number of Explants at Various Stages of Selection: SI-2 ([1]; 0.075 mM glyphosate): 47
- Number of Explants at Various Stages of Selection: End of SE-2 ([1]; 0.1 mM glyphosate): 0
- Number of Explants at Various Stages of Selection: SE-1 ([1]; 0.1 mM glyphosate): 41
- Number of Explants at Various Stages of Selection: SE-2 ([1]; 0.1 mM glyphosate): 13
- Number of Explants at Various Stages of Selection: SI-2 ([1]; 0.1 mM glyphosate): 44
- Number of Explants at Various Stages of Selection: End of SE-2 ([1]; 0.2 mM glyphosate): 0
- Number of Explants at Various Stages of Selection: SE-1 ([1]; 0.2 mM glyphosate): 31
- Number of Explants at Various Stages of Selection: SE-2 ([1]; 0.2 mM glyphosate): 1
- Number of Explants at Various Stages of Selection: SI-2 ([1]; 0.2 mM glyphosate): 42
- explant survival at the end of SE-2 ([1]; all levels of glyphosate tested, after six weeks on selection): all of the explants were dead
- extent of yellowness of the cotyledons ([1]; end of culturing on SI-2 media, about 2 weeks): directly proportional to the dose of glyphosate
- growth of the explants ([1]; glyphosate containing SI-2 media): retarded
- explants survived at the end of SE-1 ([1]; highest dose, 0.2 mM): one
- explant survival after 6 weeks of glyphosate selection ([1]; lowest dose tested, 0.025 mM): none of the soybean explants were able to survive
